The source made the active and inactive calls.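 The calls were made as follows: active = 40% activation versus positive control reached by fitted dose-response curve at or below highest valid tested dose; inconclusive = poor fit quality, or flat fit with activation between 30% and 70%; inactive = the rest.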
System: 68-5-11 mouse fibroblast XiGFP reporter, % GFP-positive imaging, 3 d
Assay: Xi-linked GFP reactivating small molecules – imaging, 68-5-11 mouse fibroblasts, cherry-pick, dose response (AID 743394);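 also: sensitizer 5-aza-dC present in the wells at 0.5 mM final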
[1] = cells co-treated with 5-aza-dC sensitizer

| Compound | AC40 [1] | AC40 [µM] |
| --- | --- | --- |
| O=S(=O)(Nc1cc(Sc2cccc3cccnc23)c(O)c2ccccc12)c1ccccc1 | > 19.5 µM (inactive) |  |
| CCN1/C(=C\c2ccc3ccccc3[n+]2CC)Sc2cc(C)ccc21 | 0.668 µM |  |
| COc1ccc(NC(=O)Nc2ccc3c(c2)CC(=O)N([C@H](C)CO)C[C@H](C)[C@@H](CN(C)S(=O)(=O)c2ccc(F)cc2)O3)cc1 | 18.6 µM |  |
| CCN1/C(=C/c2ccc3cc(C)cc(C)c3[n+]2CC)Sc2cc(C)ccc21 | 0.507 µM |  |
| CCCCNc1ccc2c3c(cccc13)C(=O)N(CCCC)C2=O | 0.927 µM |  |
| CCOCCCNC(=O)/C(C#N)=C/c1ccc([N+](=O)[O-])o1 | > 19.5 µM (inactive) |  |
| CC(=NNc1nc2ccccc2o1)c1cc2ccccc2cn1 | 2.86 µM |  |
| Cc1ccc(S(=O)(=O)N2CC3(O)CN(C(=O)OC(C)C)N(C(=O)OC(C)C)CC3(OC(=O)NCc3ccccc3)C2)cc1 (configuration not stated) | 13.8 µM |  |
| CCN1/C(=C/c2ccc3cc(C)ccc3[n+]2CC)Sc2cc(C)ccc21 | 2.16 µM |  |
| Cc1ccc(Cl)c2c(N=Nc3ccccc3)c(O)[nH]c12 | 7.83 µM |  |
| Cc1cccc(-c2cccc3[nH]c4c(c23)CCN2C(=O)[C@H]3[C@H](C)ON(C)[C@H]3C[C@@H]42)c1 | 10.8 µM |  |
| N#CC(C#N)=C1C=C2C=C(N3CCCCCC3)CCC2CC1 (configuration not stated) | 4 µM |  |
| F[B-](F)(F)c1cnc2ccccc2c1 | > 6.8 µM (inactive) |  |
| CCOC(=O)C1=C(O)/C(=C/c2cc(OC)c(O)c(OC)c2)SC1=Nc1ccc(OC)cc1 | 18.3 µM |  |
| CCOC(=O)/C(=C/C=C1\Sc2cc(C)c(C)cc2N1CC)C(C)=O | 16.9 µM |  |
| COC(=O)C1=C(C)NC(C)=C(C(=O)OC)C1C(=O)OCC(=O)c1ccc(F)cc1 | 15.3 µM |  |
| N#C/C(=C/c1ccc(-c2ccc(S(N)(=O)=O)cc2)o1)c1nc2ccccc2s1 | 1.17 µM |  |
| N#Cc1c(-c2ccccc2F)cc(C2CC2)nc1SCC(=O)c1cccs1 | 7.48 µM |  |
| CCc1cccc2cc3c(N)c(C(=O)Nc4ccc(S(=O)(=O)N5CCCC5)cc4)sc3nc12 | 4.01 µM |  |
| Nc1c(C(=O)Nc2ccc(S(=O)(=O)N3CCCC3)cc2)sc2nc3cc4c(cc3cc12)CCC4 | 4.29 µM |  |
| CCN1/C(=C\c2ccc3cc(C)ccc3[n+]2CC)Sc2cc(C)c(C)cc21 | 5.57 µM |  |
| COc1ccccc1N1N=C(c2ccc([N+](=O)[O-])cc2)CC1c1ccccc1 (configuration not stated) | 18.4 µM |  |
| CN(C)CCN(Cc1ccc(Cl)cc1)c1ccccn1 | > 2.1 µM (inactive) |  |
| Cc1cccc2cc3c(N)c(C(=O)N4CCCc5ccccc54)sc3nc12 | 9.89 µM |  |

| Compound | AC40 [1] | AC40 [µM] |
| --- | --- | --- |
| Nc1c(C(=O)c2cccs2)sc2nsc(SCCN3CCCCC3)c12 | 2.57 µM |  |
| CC1=CC(=Cc2sc3ccccc3[n+]2C)C=C(C)O1 |  | 7.67 |
| CCOC(=O)/C=c1\s/c(=C\c2ccc3cc(OC)ccc3c2)c(=O)n1CC(=O)NCc1ccc2c(c1)OCO2 | 7.15 µM |  |
| CN1CCc2c(sc(NC(=O)c3ccc(S(=O)(=O)N4CCc5ccccc54)cc3)c2C(N)=O)C1 | 8.93 µM |  |
| COc1ccccc1-[n+]1c(C)cc(/C=C2\Sc3ccccc3N2C)cc1C | 0.249 µM |  |
| Cc1ccc(NC(=O)/C=C/c2ccc([N+](=O)[O-])s2)cc1 | 3.11 µM |  |
| N#C/C(=C\c1ccc([N+](=O)[O-])o1)c1nc2ccccc2[nH]1 | 1.26 µM |  |
| COc1cc2c3nnc(-c4ccc(F)cc4)c-3cn(Cc3ccccc3)c2cc1OC | 1.23 µM |  |
| C#Cc1cc(N2CCN(C(=O)c3ccoc3)CC2)n2nc(-c3cccc(Cl)c3)cc2n1 | 8.99 µM |  |
| NC(=O)c1c(NC(=O)c2ccccc2)sc2c1CCN(Cc1ccccc1)C2 | 15.8 µM |  |
| CCCN1CCN(C(=O)C2CCN(c3nnc(C)c4c(C)n(-c5ccc(C)cc5)nc34)CC2)CC1 | 8.7 µM |  |
| CCCN1C(=O)S/C(=C\c2ccc(N3CCOCC3)o2)C1=O | > 19.5 µM (inactive) |  |
| Cc1ccc(NC(=O)/C=C/c2ccc([N+](=O)[O-])s2)c(C)c1 | 1.68 µM |  |
| c1ccc(-c2cnn3c(-c4ccccc4)c(-c4ccccc4)nc3n2)cc1 | 1.8 µM |  |
| O=S(=O)(Nc1cc2nc3ccccc3nc2n1Cc1ccccc1)c1ccc(Cl)cc1 | > 19.5 µM (inactive) |  |
| Cc1ccc(C(=O)N/C(=C/c2ccc(-c3ccc([N+](=O)[O-])cc3)o2)C(=O)NCCCN(C)C)cc1 | 4.28 µM |  |
| C[C@H]1CCCCO[C@H](CN(C)S(=O)(=O)c2ccc(Cl)cc2)[C@@H](C)CN([C@@H](C)CO)C(=O)c2cc(NC(=O)Nc3ccccc3)ccc2O1 | > 19.5 µM (inactive) |  |
| Cc1[nH]c2ccccc2c1/C=N/Nc1ccc([N+](=O)[O-])cc1 | 9.23 µM |  |
| CC(C)N1CCc2c(sc(NC(=O)c3ccc4ccccc4c3)c2C(N)=O)C1 | 13.3 µM |  |
| COc1ccc(NC(=O)CCc2ccccc2)cc1S(=O)(=O)N1CCCCC1 | 17 µM |  |
| Cc1nonc1NC(=O)CSc1nc2c(C)cccc2cc1C#N | 6.5 µM |  |
| Cc1cc(/C=C2\SC(=S)N(Cc3ccco3)C2=O)c(C)n1-c1ccccc1 | > 19.5 µM (inactive) |  |
| COC1=CC(=O)c2c(ccc3ncnc(N)c23)C1=O | 9.69 µM |  |
| C=CCN1C(=O)[C@@H]2Cc3c([nH]c4ccccc34)C(c3cc(OC)c(OC)c(OC)c3)N2C1=S (some centres not stated) | > 19.5 µM (inactive) |  |

| Compound | AC40 [1] | AC40 [µM] |
| --- | --- | --- |
| O=[N+]([O-])c1c(Nc2ccc(O)cc2)cc(Cl)c2nonc12 | 8.92 µM |  |
| COc1ccc2c(n1)Sc1nc3ccccc3nc1N2 | 13.1 µM |  |
| N#C/C(=C/c1ccc(-c2ccccc2)o1)c1nc(-c2cccs2)cs1 | 5.05 µM |  |
| Cc1cccc2cc3c(N)c(C(=O)N4CCc5ccccc54)sc3nc12 | 14.1 µM |  |
| CN(C)S(=O)(=O)c1ccc2c(c1)/C(=C/c1cc3c([nH]1)CCCC3)C(=O)N2 | 1.58 µM |  |
| O=[N+]([O-])c1ccc(/C=N/NC(=S)Nc2ccc(Cl)cc2Cl)s1 | > 19.5 µM (inactive) |  |
| CC(=O)Nc1sc(/C(C#N)=C/c2ccc(Cl)c(Cl)c2)nc1-c1ccc(C)cc1 | 1.92 µM |  |
| CCOC(=O)Cn1c(=O)c(-c2cc(Br)ccc2N)nc2ccccc21 | 12.5 µM |  |
| COC1C(CO)OC(n2c3c(Cl)cccc3c3c4c(c5c6cccc(Cl)c6[nH]c5c32)C(=O)NC4=O)C(O)C1O (configuration not stated) | 13.8 µM |  |
| Nc1[nH]c2cc([N+](=O)[O-])ccc2c1-c1ccccn1 | 4.61 µM |  |
| N=c1ccn2c(n1)OC1C(O)C(CO)OC12 (configuration not stated) | 19.1 µM |  |
| CCN1CCc2c(sc(NC(=O)Nc3ccc(Cl)c(Cl)c3)c2C(N)=O)C1 | 0.196 µM |  |
| O=[N+]([O-])c1ccc(C2=NN(c3ccccc3)C(c3ccco3)C2)cc1 (configuration not stated) | 2.25 µM |  |
| COc1ccc2nc(C)cc(NCc3ccc(F)cc3)c2c1 | 4.9 µM |  |
| O=[N+]([O-])c1ccc(N/N=C/c2sc(N3CCOCC3)nc2-c2ccccc2)c(S(=O)(=O)Nc2ccc(Cl)cc2)c1 | 1.72 µM |  |
| Cc1cc(C)c2cc3c(N)c(C(=O)Nc4c(C)[nH]c(=O)[nH]c4=O)sc3nc2c1 | 19.3 µM |  |
| CC(NC(=O)/C(C#N)=C/c1ccc([N+](=O)[O-])o1)c1ccccc1 (configuration not stated) | 6.75 µM |  |
| O=C(NC1CCCC1)c1cccc2c1C(=O)c1ccc(/C=C/c3ccccc3)cc1S2(=O)=O | 5.54 µM |  |
| COc1cc(NS(=O)(=O)c2ccc3ccccc3c2)c2ncccc2c1 | > 19.5 µM (inactive) |  |
| COc1ccc(Cn2cc3c(-c4ccc(F)cc4)nnc-3c3cc(OC)c(OC)cc32)cc1 | 4.05 µM |  |
| N#C/C(=C/c1ccc(N2CCCCC2)o1)C(=O)NCCc1c[nH]c2ccccc12 | 4.77 µM |  |
| Cc1cc2oc3ccc(NCCCn4ccnc4)cc3c(=O)c2cc1C | 11.3 µM |  |
| Cc1ccc(-c2cn3nc(-c4ccccc4)c(-c4ccccc4)nc3n2)cc1 | 7.27 µM |  |
| Cc1ccccc1OCC(O)CNC1CCC(NCC(O)COc2ccccc2C)CC1 (configuration not stated) | > 19.5 µM (inactive) |  |
